Laboratory results: paper PMC7536072, “Molecular and functional characterization of somatostatin-type signalling in a deuterostome invertebrate” (Open Biology, 2020)
Bridges are numbered along the chain shown (N, C = ends). Where no end group is shown, it is not given here.

System: cardiac stomach of A. rubens
Test: in vivo cardiac stomach eversion after injection into the perivisceral coelom
Set-up: species or system Asterias rubens
Conditions: n = 10
Protocol: When starfish (A. rubens) feed, the cardiac stomach is relaxed and everted out of the mouth over the digestible soft tissues of prey (e.g. mussels). […] Therefore, because ArSS2 causes relaxation of cardiac stomach preparations in vitro, we investigated if ArSS2 also triggers cardiac stomach eversion when injected in vivo. Firstly, 15 medium-sized starfish were starved for one week to normalize their physiological status. A Hamilton […] 50 μl syringe (Sigma-Aldrich; Gillingham, UK) was used to inject 10 μl 1 mM ArSS2, or 10 μl 1 mM asterotocin (positive control) or 10 μl water (negative control) into the […] coelom of starfish. ArSS2 was tested on five individuals firstly and then the next day, asterotocin was tested on the same batch of five individuals. For another five individuals, asterotocin was tested first and then ArSS2 was tested on the following day. The remaining five individuals were injected with water as a control. Thus, both ArSS2 and asterotocin were tested on ten starfish. For each starfish, the test agent was injected via two sites in the dorsal body wall of the arms proximal to the junctions with the central disc region. Care was taken to inject test agents into the […] coelom and not into the cardiac stomach.

[1] = 10 µl 10^−3 M into perivisceral coelom

RAKNARCMADFWKGRGLVDC (disulfide 7-20 (inferred)) [ArSS2]
mean maximal eversion, area of everted cardiac stomach (10 µl 10^−3 M into perivisceral coelom, 10 min recording): approximately 10 % of the area of the central disc region
incidence of cardiac stomach eversion [1]: all of the animals
time of mean maximal eversion after injection [1]: approximately 4 min
magnitude of cardiac stomach eversion compared with asterotocin (10 µl 10^−3 M): much less than that induced by asterotocin
